According to PMC13401508 (Pharmacological research, 2026):

Tests used:
[1] = Log D by shake flask (pH 7.4); assay type: physicochemical; details: pH 7.4, octanol/phosphate buffer
Experimental: Sodium Phosphate buffer pH 7.4 (10 mM) was used as the aqueous phase and octanol was used as the organic phase. […] The sealed plate was incubated at 25 °C with continuous agitation at 2000 rpm for 2 hrs. Samples were then separated by centrifugation, diluted 100-fold with a mixture of H20 and acetonitrile containing internal standard, and analyzed via LC-MS/MS. The Log D value was calculated using the following equation: […]

[2] = Stability in liver microsomes with NADPH and UDPGA; assay type: in vitro ADME; details: liver microsomes; all species (human, monkey, dog, rat, mouse), NADPH and UDPGA added; read-out: t½ in liver microsomes
Experimental: Test samples were incubated at 37 °C, and Verapamil was used as a positive control. Samples were drawn from the incubation solution at different timepoints, centrifuged, then diluted with ultra-pure H20 and analyzed via LC-MS/MS. The natural logarithm of the remaining parent drug at each timepoint was plotted against incubation time, and the following equation was used to calculate the in vitro half-life:
in vitro t1/2 = -(0.693/k), where k is the rate constant.

[3] = Pharmacokinetic studies, single dose IV, PO, SC, IP; assay type: in vivo, CD1 mice
Experimental: CD1 mice were randomly grouped to 4 groups (n=3 per group). […] Further, 20-µL blood samples were collected from a capillary in the retro-orbital plexus at pre-determined time intervals, placed into heparinized tubes, and immediately centrifuged (2500 × g, 15 min, 4 °C). The plasma was separated and kept frozen at −80 °C until analysis.
Then the samples were vortexed for 30 s. After centrifugation at 4000 rpm for 15 min at 4 °C, the supernatant was diluted 3 times with water.5 µL of the diluted supernatant was injected into the Shimadzu LC/MS/MS system with a Phenomenex Kinetex C18 column (2.1 mm × 50 mm, 5 µm, 100 Å ). The samples were chromatographed using a gradient mobile phase consisting of 95% water (0.1% formic acid)– 95% acetonitrile (0.1% formic acid), delivered at a flow rate of 0.6 mL/min.

PDGF-AA [4] = assay: PDGF-AA mRNA expression by qRT-PCR in PC cells; assay type: cell-based, human; details: 24 hrs
Experimental: (§1) Total RNA was extracted from cells using miRNeasy kits (Qiagen), and cDNA was prepared as described previously. Gene specific TaqMan Probes were obtained from Applied Bio system, Thermo-Fisher, USA. qRT-PCR was performed using an ABI Quant Studio real-time PCR.
(§2) Fig. 2. […] NF-κB activity was measured by absorbance at 450 nm (n = 3 ± SD; * p < 0.05). […] C) PDGF-AA protein levels were determined in the three PC cell line-derived conditioned media by ELISA. In both panels: n = 3 ± SD; * p < 0.05.

PDGF-AA [5] = assay: PDGF-AA protein in conditioned media by ELISA; assay type: cell-based, human; details: conditioned media of PC3-ML, ARCaP-M and C4–2B cells
Experimental: Human and mouse specific CXCL5, PDGF-AA ELISA kits were obtained from R&D Systems, USA. All ELISAs were performed using the manufacturer’s protocol.
as §2

YAP = assay: Western blot, PDGF-AA activated HS5 cells: YAP; assay type: cell-based, human; details: PDGF-AA 10 ng/ML, 25 μM, 24 hrs
CXCL5 [6] = assay: CXCL5 mRNA by qRT-PCR in HS5 cells; assay type: cell-based, human; details: PDGF-AA activated HS5 cells, 24 hrs
Experimental: as §1
(§3) Fig. 3. […] CXCL5 mRNA expression was measured by qRT-PCR. […] Secreted CXCL5 in CM was measured by ELISA (n = 3 ± SD; * p < 0.05). […] CXCL5 mRNA expression was measured by qRT-PCR (n = 3 ± SD; * p < 0.05).

CXCL5 [7] = assay: CXCL5 mRNA by qRT-PCR in murine BM-MSCs (WT and mda-9 KO); assay type: cell-based, C57BL/6 mice; details: murine PDGF-AA 10 ng/ML, 25 μM, 24 hrs
Experimental: Total bone marrow cells were collected from 6 to 8 weeks male MDA-9/Syntenin^WT (mda-9^WT) and global MDA-9/Syntenin knockout (mda-9^−/−) mice as previously described in Das et al.. mda-9^WT and mda-9^−/− bone marrow derived mesenchymal stromal cells were isolated using a previously outlined protocol.
as §3

RM1-BM-Luc cells = assay: Combination and survival study, RM1-BM-Luc syngeneic model; assay type: in vivo, C57BL/6 mice; details: RM1-BM-Luc in C57BL/6, day 14, IVMT-Rx-4 30 mg/kg and/or Docetaxel 5 mg/kg 3X a week for two weeks
Experimental: (§4) Both syngeneic (C57BL/6) and athymic nude mice were used for survival studies. Tumor cells (RM1-BM-Luc or PC3-ML-Luc) were injected intracardially in a cohort of 40 animals. […] In the combination groups, both regimens were administered 3X a week for two-weeks at the same dose as a single therapy. Animals were imaged periodically and maintained until euthanization was required.
(§5) Fig. 5. […] A and B) RM1-BM-Luc (A) or PC3-ML-Luc (B) cells were implanted I.C. in C57BL/6 and athymic nude mice, respectively. […] BLI images were used to detect bone metastases (the percentage incidence of bone metastases in animals was calculated at a single time point, day 14). Values are presented at the bottom panel of the respective group (red, number of animals positive for metastasis and black, total number of experimental animals). C and D) Animals were kept until mandated euthanasia based on IACUC guidelines, considered as disease associated death. The Kaplan–Meier survival curves were generated using GraphPad in both models as described in (A) and (B), respectively. E and F) Log-rank test was performed and values between different experimental groups are presented.

PC3-ML-Luc cells = assay: Combination and survival study, PC3-ML-Luc model; assay type: in vivo; details: PC3-ML-Luc in athymic nude mice, day 14, IVMT-Rx-4 30 mg/kg and/or Docetaxel 5 mg/kg 3X a week for two weeks
Experimental: as §4, §5

## Cc1cc(NC(=O)CCc2nnc(-c3ccccc3)o2)c(C)cc1N [IVMT-Rx-4]
[1]
  logD at 2 h: 1.49
[2]
  half-life: > 210 min
[3]; CD1, mouse, plasma, 10 mg/kg, all non-intravenous routes
  Tmax: ≤ 30 min
[3]; CD1, mouse, plasma, ip, 10 mg/kg, IP 10 mg/kg, read-out: Plasma half-life (converted)
  half-life: 61.2 min
[3]; CD1, mouse, plasma, iv, 3 mg/kg, IV 3 mg/kg, mean of 3 mice, read-out: T1/2 (plasma half-life) (converted)
  half-life: 27 min
[3]; CD1, mouse, plasma, po, 10 mg/kg, PO 10 mg/kg, read-out: Plasma half-life (converted)
  half-life: 82.2 min
[3]; CD1, mouse, plasma, sc, 10 mg/kg, SC 10 mg/kg, read-out: Plasma half-life (converted)
  half-life: 41.4 min
[3]; IP 10 mg/kg
  Maximum plasma concentration (Cmax): 1012 ng/mL
  time to reach Cmax (Tmax): 15 min
[3]; IV 3 mg/kg
  time after which plasma levels became undetectable: 4 h
[3]; PO 10 mg/kg
  Maximum plasma concentration (Cmax): 2047 ng/mL
  time to reach Cmax (Tmax): 15 min
[3]; PO, SC and IP routes, 10 mg/kg
  time after which plasma levels became undetectable: 8 h
[3]; SC 10 mg/kg
  Maximum plasma concentration (Cmax): 1017 ng/mL
  time to reach Cmax (Tmax): 30 min
PDGF-AA [4]; PC3-ML mda-9 KO and ARCaP-M mda-9 KO
  PDGF-AA levels in mda-9 knockout clones: did not further reduce PDGF-AA levels
PDGF-AA [4]; PC3-ML, ARCaP-M and C4–2B cells, 25 μM or 50 μM
  PDGF-AA mRNA level: decreased PDGF-AA
PDGF-AA [5]
  PDGF-AA protein level: decreased PDGF-AA
YAP
  phosphorylation of YAP at ser127: promoted
CXCL5 [6]
  CXCL5 mRNA level: significantly decreased
CXCL5 [7]; mBM-MSC WT
  CXCL5 mRNA expression: CXCL5 suppression occurred exclusively in mBM-MSC^WT
CXCL5 [7]; mBM-MSC mda-9 KO
  CXCL5 mRNA expression: not in mBM-MSC^mda−9 KO cells
RM1-BM-Luc cells
  bone metastases, Incident/Total number tested: 3/8
PC3-ML-Luc cells
  bone metastases, Incident/Total number tested: 1/8
